# Measurements published in patent US20250332139A1, “PS[…] AND THEIR USE FOR TREATING […] AND NE[…] DISORDERS” (Transcend Therapeutics, Inc., priority 2021, published 2025).
# Experiments:
# [1] = tested on: C57BL/6J mice; assay: Fear extinction paradigm (PTSD mouse model); assay type: in vivo
# Description: Effective PTSD treatments facilitate the disassociation between a traumatic memory and the patient's fear response, making cues for the traumatic memory evoke less of a fear response. This is modeled in the mouse fear extinction paradigm (see FIG. 9A) which takes place over 3 days. On day 1 (fear conditioning), mice are trained to acquire a “traumatic memory,” namely associating the conditioned stimulus (CS, tone) to the unconditioned stimulus (US, foot shock). On day 2 (extinction training), they are trained to forget the traumatic memory association by presenting the CS 6 times (with no US) in a novel environment. On day 3 (extinction recall), the mice are “asked” if that tone (CS) still elicits a fearful response, as measured by the time spent freezing when the tone is presented. Less time freezing means better extinction recall. Drugs that improve extinction recall reduce freezing time on day 3, and, therefore, show potential as a PTSD treatment.
# Methods: Cued fear conditioning was performed in C57BL/6J mice. On day 1, animals were placed in the chambers and presented with a training session (CS-US pairing). The training consisted of a 2-minute habituation followed by a 30-second, 80 dB tone; during the last 2 seconds of the tone animals received a 1 mA foot shock. This US-CS procedure occurred once for a total of one paired presentation of tone and shock. Freezing behavior (immobility) was recorded in 5-10-see intervals during the session. Percent baseline freezing behavior was determined in the 2-minute habituation period. On day 3, animals were placed in context B, in which tactile and odor cues differed from context A. Following a 2 minute acclimation period animals received 4×30 sec presentations of the CS (tone) in the absence of the US (footshock), with a 45 sec interval between presentations. Freezing was recorded in 5-10-see intervals to measure baseline freezing response to the altered context, and freezing response to each tone cue presentation. […] On day 4 (Post-Extinction Testing in Drug-Free State), animals were placed in Context B. Following a 2 min acclimation period, animals received 4×30 sec extinction tone duration presentations of the CS (tone) in the absence of the US (footshock), with a 45 sec interval between presentations. Freezing was recorded in 5-10-see intervals to measure baseline freezing response to the altered context, and freezing response to each tone cue presentation.
# [2] = target: SERT (Rattus norvegicus, UniProt P31652); assay: [3H]5HT uptake saturation curves with or without methylone; assay type: biochemical
# SERT, sequence (P31652 whole entry): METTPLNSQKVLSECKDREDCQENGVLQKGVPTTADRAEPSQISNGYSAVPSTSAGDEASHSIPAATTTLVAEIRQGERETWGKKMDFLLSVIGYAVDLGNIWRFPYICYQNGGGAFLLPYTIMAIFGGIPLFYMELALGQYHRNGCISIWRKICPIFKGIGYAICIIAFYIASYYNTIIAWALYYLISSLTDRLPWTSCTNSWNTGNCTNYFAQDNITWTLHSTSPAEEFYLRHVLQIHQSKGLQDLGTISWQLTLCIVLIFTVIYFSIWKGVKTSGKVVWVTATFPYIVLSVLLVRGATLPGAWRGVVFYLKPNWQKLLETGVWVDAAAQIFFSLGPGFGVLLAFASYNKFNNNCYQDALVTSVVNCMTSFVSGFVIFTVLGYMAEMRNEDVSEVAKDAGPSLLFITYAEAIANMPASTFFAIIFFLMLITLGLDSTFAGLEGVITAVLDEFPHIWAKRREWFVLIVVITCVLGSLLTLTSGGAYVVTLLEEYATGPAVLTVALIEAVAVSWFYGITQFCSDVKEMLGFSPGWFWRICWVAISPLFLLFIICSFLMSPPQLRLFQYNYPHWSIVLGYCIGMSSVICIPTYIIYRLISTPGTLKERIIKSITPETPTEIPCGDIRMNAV
# Description: If high concentrations of [^3H] […] Three hot saturation curves were run with the [^3H]
# [3] = target: T1, 168 GPCRs (Homo sapiens, UniProt O43603); assay: β-arrestin GPCR screen (PathHunter/GPCRmax), agonist mode; assay type: cell-based; conditions: GALR2; Agonist; 1 uM
# T1 construct: host or cells: PathHunter cell lines
# T1 sequence (O43603 whole entry): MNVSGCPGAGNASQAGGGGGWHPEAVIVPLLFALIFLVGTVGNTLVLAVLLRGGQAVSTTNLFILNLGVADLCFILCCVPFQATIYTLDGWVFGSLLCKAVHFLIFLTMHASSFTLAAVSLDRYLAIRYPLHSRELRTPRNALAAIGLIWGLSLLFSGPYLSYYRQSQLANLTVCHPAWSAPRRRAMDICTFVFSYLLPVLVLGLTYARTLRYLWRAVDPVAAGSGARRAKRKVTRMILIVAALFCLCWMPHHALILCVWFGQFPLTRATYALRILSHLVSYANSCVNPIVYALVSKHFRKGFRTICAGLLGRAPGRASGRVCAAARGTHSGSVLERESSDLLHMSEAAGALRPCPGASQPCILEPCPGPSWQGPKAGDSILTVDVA
# Method: (§1) For agonist determination, cells were incubated with sample to induce response. […] Vehicle concentration was 1%.
# [4] = target: T2, 168 GPCRs (Homo sapiens, UniProt O95977); assay: as above; assay type: cell-based; conditions: GPCR EDG6; Agonist mode; 10 uM
# T2 construct: host or cells: PathHunter cell lines
# T2 sequence (O95977 whole entry): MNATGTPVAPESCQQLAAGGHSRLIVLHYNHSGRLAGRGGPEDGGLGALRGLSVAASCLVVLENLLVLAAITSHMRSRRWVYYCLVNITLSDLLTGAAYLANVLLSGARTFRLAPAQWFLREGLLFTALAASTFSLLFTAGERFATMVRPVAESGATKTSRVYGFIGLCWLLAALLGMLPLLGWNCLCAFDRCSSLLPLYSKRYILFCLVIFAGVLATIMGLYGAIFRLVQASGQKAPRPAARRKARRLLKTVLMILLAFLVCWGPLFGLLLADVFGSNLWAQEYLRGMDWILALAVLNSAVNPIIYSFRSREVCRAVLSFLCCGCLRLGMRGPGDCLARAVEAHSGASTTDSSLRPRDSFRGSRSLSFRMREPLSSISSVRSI
# Method: as §1
# [5] = target: T3, 168 GPCRs (Homo sapiens, UniProt P14416); assay: as above; assay type: cell-based; conditions: GPCR DRD2L; Agonist mode; 10 uM
# T3 construct: host or cells: PathHunter cell lines
# T3 sequence (P14416 whole entry): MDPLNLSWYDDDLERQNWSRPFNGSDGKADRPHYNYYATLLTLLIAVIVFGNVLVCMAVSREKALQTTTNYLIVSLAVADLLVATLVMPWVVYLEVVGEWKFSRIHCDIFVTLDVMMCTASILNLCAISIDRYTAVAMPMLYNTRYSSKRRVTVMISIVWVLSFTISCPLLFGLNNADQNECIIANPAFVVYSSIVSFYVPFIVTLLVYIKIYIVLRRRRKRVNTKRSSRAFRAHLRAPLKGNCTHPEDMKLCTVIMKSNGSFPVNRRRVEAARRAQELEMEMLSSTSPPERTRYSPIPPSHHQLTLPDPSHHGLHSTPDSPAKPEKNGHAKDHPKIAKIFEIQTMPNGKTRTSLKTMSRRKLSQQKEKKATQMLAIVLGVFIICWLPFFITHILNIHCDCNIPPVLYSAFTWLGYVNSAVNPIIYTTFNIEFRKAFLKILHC
# Method: as §1
# [6] = target: T4, 168 GPCRs (Homo sapiens, UniProt P25024); assay: as above; assay type: cell-based; conditions: GPCR CXCR1; Agonist mode; 10 uM
# T4 construct: host or cells: PathHunter cell lines
# T4 sequence (P25024 whole entry): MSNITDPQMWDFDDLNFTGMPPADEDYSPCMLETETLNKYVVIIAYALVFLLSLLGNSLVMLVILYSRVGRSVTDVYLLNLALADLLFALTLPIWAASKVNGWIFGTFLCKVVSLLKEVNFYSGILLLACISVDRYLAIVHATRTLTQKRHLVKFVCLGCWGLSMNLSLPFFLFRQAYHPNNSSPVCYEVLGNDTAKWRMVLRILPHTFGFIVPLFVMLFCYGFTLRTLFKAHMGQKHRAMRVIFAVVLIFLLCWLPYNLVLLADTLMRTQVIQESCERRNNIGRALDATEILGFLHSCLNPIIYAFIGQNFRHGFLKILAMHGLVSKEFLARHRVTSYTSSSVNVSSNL
# Method: as §1
# [7] = target: T5, 168 GPCRs (Homo sapiens, UniProt P32246); assay: as above; assay type: cell-based; conditions: CCR1; Agonist; 1 uM
# T5 construct: host or cells: PathHunter cell lines
# T5 sequence (P32246 whole entry): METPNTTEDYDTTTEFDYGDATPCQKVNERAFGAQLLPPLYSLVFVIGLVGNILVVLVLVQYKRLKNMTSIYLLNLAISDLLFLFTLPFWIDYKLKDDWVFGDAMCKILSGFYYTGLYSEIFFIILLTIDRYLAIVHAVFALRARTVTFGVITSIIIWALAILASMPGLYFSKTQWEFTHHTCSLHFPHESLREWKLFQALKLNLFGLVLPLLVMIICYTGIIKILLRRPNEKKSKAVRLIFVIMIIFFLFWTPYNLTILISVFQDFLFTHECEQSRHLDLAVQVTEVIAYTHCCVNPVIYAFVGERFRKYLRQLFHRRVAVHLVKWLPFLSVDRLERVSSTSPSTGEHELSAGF
# Method: as §1
# [8] = target: T6, 168 GPCRs (Homo sapiens, UniProt P46092); assay: as above; assay type: cell-based; conditions: CCR10; Agonist; 10 uM
# T6 construct: host or cells: PathHunter cell lines
# T6 sequence (P46092 whole entry): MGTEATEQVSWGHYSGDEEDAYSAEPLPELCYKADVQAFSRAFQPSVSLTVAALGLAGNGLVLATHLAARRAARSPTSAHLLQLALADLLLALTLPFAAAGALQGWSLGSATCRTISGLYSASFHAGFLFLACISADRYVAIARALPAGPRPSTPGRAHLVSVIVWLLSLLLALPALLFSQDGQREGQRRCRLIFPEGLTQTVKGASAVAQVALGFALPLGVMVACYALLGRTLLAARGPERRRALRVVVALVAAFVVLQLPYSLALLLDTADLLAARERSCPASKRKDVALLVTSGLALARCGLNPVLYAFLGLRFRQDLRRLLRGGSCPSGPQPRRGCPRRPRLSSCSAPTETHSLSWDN
# Method: as §1
# [9] = target: T7, 168 GPCRs (Homo sapiens, UniProt P49682); assay: as above; assay type: cell-based; conditions: GPCR CXCR3; Agonist mode; 10 uM
# T7 construct: host or cells: PathHunter cell lines
# T7 sequence (P49682 whole entry): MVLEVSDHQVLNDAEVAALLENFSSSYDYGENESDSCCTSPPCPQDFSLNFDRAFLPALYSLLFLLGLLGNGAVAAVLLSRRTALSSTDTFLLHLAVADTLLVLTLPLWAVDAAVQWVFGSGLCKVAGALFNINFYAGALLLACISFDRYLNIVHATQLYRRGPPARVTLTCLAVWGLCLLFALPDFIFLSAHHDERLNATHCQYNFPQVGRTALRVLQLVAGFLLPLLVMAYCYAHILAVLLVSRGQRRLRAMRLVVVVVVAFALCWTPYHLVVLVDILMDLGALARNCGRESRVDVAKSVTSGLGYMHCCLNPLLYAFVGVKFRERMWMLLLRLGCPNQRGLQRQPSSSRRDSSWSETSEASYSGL
# Method: as §1
# [10] = target: T8, 168 GPCRs (Homo sapiens, UniProt Q16602); assay: as above; assay type: cell-based; conditions: CALCRL-RAMP3; Agonist; 10 uM
# T8 construct: host or cells: PathHunter cell lines
# T8 sequence (Q16602 23-461): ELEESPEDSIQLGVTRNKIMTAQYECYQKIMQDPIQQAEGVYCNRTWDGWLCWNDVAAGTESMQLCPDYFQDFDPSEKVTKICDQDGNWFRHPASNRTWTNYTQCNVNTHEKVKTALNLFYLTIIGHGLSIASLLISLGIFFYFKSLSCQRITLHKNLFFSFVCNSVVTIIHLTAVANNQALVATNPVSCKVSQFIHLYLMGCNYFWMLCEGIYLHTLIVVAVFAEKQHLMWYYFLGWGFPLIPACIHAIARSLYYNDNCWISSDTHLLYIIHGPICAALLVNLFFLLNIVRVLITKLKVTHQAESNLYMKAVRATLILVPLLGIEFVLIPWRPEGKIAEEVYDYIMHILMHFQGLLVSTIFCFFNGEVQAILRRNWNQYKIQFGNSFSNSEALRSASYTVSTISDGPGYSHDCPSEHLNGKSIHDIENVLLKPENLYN
# Method: as §1
# [11] = tested on: rats; assay: Reserpine-induced fibromyalgia model, von Frey test; assay type: in vivo, rat; conditions: methylone 15 mg/kg IP 30 min before vonFrey test, day 4
# [12] = Excipient compatibility study; assay type: physicochemical; conditions: 2 Week 40° C./75% RH, closed vial
# Method: Analyses were conducted at t=0, 2, 4 and 8 weeks for appearance, assay, and related substances for samples stored in closed vials at 25° C./60% RH and 40° C./75% RH.
# Excipient Compatibility Sample Mixtures: The excipients and API were dispensed individually by weight into 20 mL clear borosilicate (type I) glass vials to fill the appropriate weights as listed in Table 12. Table 12 lists mixtures of API with varied excipients and a stand-alone control sample of API alone. Each excipient mixture sample preparation was conducted using a clean spatula to mix the vial ingredients for 30-60 seconds. Each vial was properly labeled with the description and storage conditions. One vial was used for testing at the initial (t=0) time point. Three vials, closed, were placed at each storage condition to allow sampling at each time point and one vial, closed, was placed at each storage condition for overage.
# [13] = tested on: C57BL/6J mice; assay: Head-twitch response (HTR) test; assay type: in vivo, mouse; conditions: i.p., HTR measured for 10 minutes, any dose tested
# Method: Head twitch response (HTR) was evaluated using C57BL/6J mice (ages 7-10 weeks). Mice were ear tagged at least three days after arrival to the animal facility and allowed to rest for at least three days before behavioral testing. Small magnets (SuperMagnetMan-N45 magnet 3 mm diameter, 0.5 mm thickness) were glued to ear tags (Stoelting-La Pias Aluminum Ear Tags) at least two days before mice were ear tagged. The experimental setup was adapted from Gonzales-Maeso (de la Fuente Revenga et al., 2019) and Kwan (Jefferson et al., 2022; Savalia et al., 2021), including experimental apparatus and MATLAB code for analysis.
# Doses were randomly assigned, and age-matched controls were injected with vehicle and randomly interspersed with drug conditions. At least three animals per sex were used for each drug dose and condition. If animals were used in multiple HTR experiments, experimental sessions took place at least one week apart. Two animals were run at a time. Immediately after i.p. injection of psychedelic or entactogen drug, animals were placed in separate plastic boxes within a larger chamber (Home Depot-28 in. W×32 in. H x 21.5 in. D), and HTR was measured for 10 minutes. A small lamp was placed in the back of the larger chamber, and a high-speed camera (Basler-Aca 1920-155 μm) was suspended from the ceiling to record video of the animals in the plastic boxes. […]
smiles,measurement,setting,value
"CNC(C)C(=O)c1ccc2c(c1)OCO2 (centres unmarked) [methylone, 3,4-methylenedioxy-N-methylcathinone]",fear extinction training on day 3,"[1]; Example 35, all doses (10, 20, 30 mg/kg IP)",significantly improved fear extinction training
same,effect on fear extinction training and testing,"[1]; Example 35, methylone 30 mg/kg IP 30 min before extinction training on day 3","rapid, robust and long-lasting beneficial effect"
same,enhancement of fear extinction recall vs saline,"[1]; methylone 30 mg/kg IP 30 min before extinction training, day 3",~60%
same,locomotion during testing session,"[1]; methylone 30 mg/kg IP, day 3",no differences between groups in locomotion
same,effect on Bmax of [3H]5HT uptake,[2],no decrease in Bmax
same,type of interaction at the SERT,[2]; two concentrations of methylone,competitive
same,activity at 1 µM,[3],-3.4%
same,activity at 10 µM,[4],-0.3%
same,activity at 10 µM,[5],-0.7%
same,activity at 10 µM,[6],-0.1%
same,activity at 1 µM,[7],~-2%
same,activity at 10 µM,[8],~-1%
same,activity at 10 µM,[9],~1%
same,activity at 10 µM,[10],-2.2%
same,paw withdrawal thresholds,[11],significantly increased paw withdrawal thresholds
same,Assay (% Recovery),[12],99.0 % Recovery
same,head-twitch behaviors,[13],no effect on head-twitch behaviors at any dose tested
